{
  "source": "patent US20260285850A1",
  "about": "“SUBSTITUTED OXAZOLIDINONES AND IMIDAZOLINONES AS HERBICIDES” (FMC CORPORATION, priority 2023, published 2026)",
  "type_in_all_cases": "in vivo",
  "key": {"[1]": {"tested_on": "barnyardgrass (Echinochloa crus-galli)", "experiment": "Test A preemergence soil spray, visual injury rating 0-100", "conditions": "10 days, 0 = no effect, 100 = complete control", "from_the_text": "(§1) Seeds of plant species selected from barnyardgrass (Echinochloa crus-galli), blackgrass (Alopecurus myosuroides), corn (Zea mays), foxtail, giant (giant foxtail, Setaria faberi), green foxtail (Setaria viridis), goosegrass (Eleusine indica), kochia (Bassia scoparia), oat, wild (wild oat, Avena fatua), palmer (palmer amaranth, palmer pigweed, Amaranthus palmeri), ragweed (common ragweed, Ambrosia artemisiifolia), ryegrass, Italian (italian ryegrass, Lolium multiflorum), soybean (Glycine max) and wheat (Triticum aestivum) were planted into a blend of loam soil and sand and treated preemergence with a directed soil spray using test chemicals formulated in a non-phytotoxic solvent mixture which included a surfactant.\n(§2) At the same time, plants selected from these crops and weed species and also galium (catchweed bedstraw, Galium aparine) and horseweed (Erigeron canadensis) were planted in pots containing the same blend of loam soil and sand and treated with postemergence applications of test chemicals formulated in the same manner. Plants ranged in height from 2 to 10 cm and were in the one- to two-leaf stage for the postemergence treatment. Treated plants and untreated controls were maintained in a greenhouse for 10 days, after which time all treated plants were compared to untreated controls and visually evaluated for injury. Plant response ratings, summarized in Table A, are based on a 0 to 100 scale where 0 is no effect and 100 is complete control. A dash (-) response means no test result."}, "[2]": {"tested_on": "blackgrass (Alopecurus myosuroides)", "experiment": "Test A preemergence soil spray, visual injury rating 0-100", "conditions": "10 days, 0 = no effect, 100 = complete control", "from_the_text": "as §1, §2"}, "[3]": {"tested_on": "corn (Zea mays)", "experiment": "Test A preemergence soil spray, visual injury rating 0-100", "conditions": "10 days, 0 = no effect, 100 = complete control", "from_the_text": "as §1, §2"}, "[4]": {"tested_on": "kochia (Bassia scoparia)", "experiment": "Test A preemergence soil spray, visual injury rating 0-100", "conditions": "10 days, 0 = no effect, 100 = complete control", "from_the_text": "as §1, §2"}, "[5]": {"tested_on": "oat, wild (wild oat, Avena fatua)", "experiment": "Test A preemergence soil spray, visual injury rating 0-100", "conditions": "10 days, 0 = no effect, 100 = complete control", "from_the_text": "as §1, §2"}, "[6]": {"tested_on": "palmer (palmer amaranth, palmer pigweed, Amaranthus palmeri)", "experiment": "Test A preemergence soil spray, visual injury rating 0-100", "conditions": "10 days, 0 = no effect, 100 = complete control", "from_the_text": "as §1, §2"}, "[7]": {"tested_on": "ragweed (common ragweed, Ambrosia artemisiifolia)", "experiment": "Test A preemergence soil spray, visual injury rating 0-100", "conditions": "10 days, 0 = no effect, 100 = complete control", "from_the_text": "as §1, §2"}, "[8]": {"tested_on": "ryegrass, Italian (italian ryegrass, Lolium multiflorum)", "experiment": "Test A preemergence soil spray, visual injury rating 0-100", "conditions": "10 days, 0 = no effect, 100 = complete control", "from_the_text": "as §1, §2"}, "[9]": {"tested_on": "soybean (Glycine max)", "experiment": "Test A preemergence soil spray, visual injury rating 0-100", "conditions": "10 days, 0 = no effect, 100 = complete control", "from_the_text": "as §1, §2"}, "[10]": {"tested_on": "wheat (Triticum aestivum)", "experiment": "Test A preemergence soil spray, visual injury rating 0-100", "conditions": "10 days, 0 = no effect, 100 = complete control", "from_the_text": "as §1, §2"}, "[11]": {"tested_on": "barnyardgrass (Echinochloa crus-galli)", "experiment": "Test A postemergence application, visual injury rating 0-100", "conditions": "Postemergence", "from_the_text": "as §1, §2"}, "[12]": {"tested_on": "blackgrass (Alopecurus myosuroides)", "experiment": "Test A postemergence application, visual injury rating 0-100", "conditions": "Postemergence", "from_the_text": "as §1, §2"}, "[13]": {"tested_on": "corn (Zea mays)", "experiment": "Test A postemergence application, visual injury rating 0-100", "conditions": "Postemergence", "from_the_text": "as §1, §2"}, "[14]": {"tested_on": "galium (catchweed bedstraw, Galium aparine)", "experiment": "Test A postemergence application, visual injury rating 0-100", "conditions": "Postemergence", "from_the_text": "as §1, §2"}, "[15]": {"tested_on": "horseweed (Erigeron canadensis)", "experiment": "Test A postemergence application, visual injury rating 0-100", "conditions": "Postemergence", "from_the_text": "as §1, §2"}, "[16]": {"tested_on": "kochia (Bassia scoparia)", "experiment": "Test A postemergence application, visual injury rating 0-100", "conditions": "Postemergence", "from_the_text": "as §1, §2"}, "[17]": {"tested_on": "oat, wild (wild oat, Avena fatua)", "experiment": "Test A postemergence application, visual injury rating 0-100", "conditions": "Postemergence", "from_the_text": "as §1, §2"}, "[18]": {"tested_on": "palmer (palmer amaranth, palmer pigweed, Amaranthus palmeri)", "experiment": "Test A postemergence application, visual injury rating 0-100", "conditions": "Postemergence", "from_the_text": "as §1, §2"}, "[19]": {"tested_on": "ragweed (common ragweed, Ambrosia artemisiifolia)", "experiment": "Test A postemergence application, visual injury rating 0-100", "conditions": "Postemergence", "from_the_text": "as §1, §2"}, "[20]": {"tested_on": "ryegrass, Italian (italian ryegrass, Lolium multiflorum)", "experiment": "Test A postemergence application, visual injury rating 0-100", "conditions": "Postemergence", "from_the_text": "as §1, §2"}, "[21]": {"tested_on": "soybean (Glycine max)", "experiment": "Test A postemergence application, visual injury rating 0-100", "conditions": "Postemergence", "from_the_text": "as §1, §2"}, "[22]": {"tested_on": "wheat (Triticum aestivum)", "experiment": "Test A postemergence application, visual injury rating 0-100", "conditions": "Postemergence", "from_the_text": "as §1, §2"}, "[23]": {"conditions": "31 g ai/ha, greenhouse 10 days, 0 no effect, 100 complete control"}, "[24]": {"conditions": "125 g ai/ha, 10 days, 0 is no effect, 100 is complete control"}},
  "data": [
    {"smiles": "CC1(C(=O)NC2CC=C(C(=O)NS(=O)(=O)C3CC3)C2)CN(c2cc(Cl)cc(Cl)c2)C(=O)O1", "note": "(centres unmarked) [Compound 75]", "values": [
      {"measurement": "Barnyardgrass plant response rating (0-100)", "setting": "[1]; 31 g ai/ha", "value": 0},
      {"measurement": "Barnyardgrass plant response rating (0 to 100 scale)", "setting": "[1]; 125 g ai/ha", "value": 80},
      {"measurement": "Blackgrass plant response rating (0-100)", "setting": "[2]; 31 g ai/ha", "value": 20},
      {"measurement": "Blackgrass plant response rating (0 to 100 scale)", "setting": "[2]; 125 g ai/ha", "value": 40},
      {"measurement": "Corn plant response rating (0-100)", "setting": "[3]; 31 g ai/ha", "value": 0},
      {"measurement": "Corn plant response rating (0 to 100 scale)", "setting": "[3]; 125 g ai/ha", "value": 0},
      {"measurement": "Kochia plant response rating (0-100)", "setting": "[4]; 31 g ai/ha", "value": 50},
      {"measurement": "Kochia plant response rating (0 to 100 scale)", "setting": "[4]; 125 g ai/ha", "value": 90},
      {"measurement": "Oat, Wild plant response rating (0-100)", "setting": "[5]; 31 g ai/ha", "value": 0},
      {"measurement": "Oat, Wild plant response rating (0 to 100 scale)", "setting": "[5]; 125 g ai/ha", "value": 0},
      {"measurement": "Amaranth, Palmer plant response rating (0-100)", "setting": "[6]; 31 g ai/ha", "value": 50},
      {"measurement": "Amaranth, Palmer plant response rating (0 to 100 scale)", "setting": "[6]; 125 g ai/ha", "value": 90},
      {"measurement": "Ragweed plant response rating (0-100)", "setting": "[7]; 31 g ai/ha", "value": 10},
      {"measurement": "Ragweed plant response rating (0 to 100 scale)", "setting": "[7]; 125 g ai/ha", "value": 0},
      {"measurement": "Ryegrass, Italian plant response rating (0-100)", "setting": "[8]; 31 g ai/ha", "value": 10},
      {"measurement": "Ryegrass, Italian plant response rating (0 to 100 scale)", "setting": "[8]; 125 g ai/ha", "value": 70},
      {"measurement": "Soybean plant response rating (0-100)", "setting": "[9]; 31 g ai/ha", "value": 30},
      {"measurement": "Soybean plant response rating (0 to 100 scale)", "setting": "[9]; 125 g ai/ha", "value": 10},
      {"measurement": "Wheat plant response rating (0-100)", "setting": "[10]; 31 g ai/ha", "value": 0},
      {"measurement": "Wheat plant response rating (0 to 100 scale)", "setting": "[10]; 125 g ai/ha", "value": 40},
      {"measurement": "Barnyardgrass plant response rating (0 to 100 scale)", "setting": "[11]; [23]", "value": 80},
      {"measurement": "Barnyardgrass plant response rating (0 to 100 scale)", "setting": "[11]; [24]", "value": 90},
      {"measurement": "Blackgrass plant response rating (0 to 100 scale)", "setting": "[12]; [23]", "value": 0},
      {"measurement": "Blackgrass plant response rating (0 to 100 scale)", "setting": "[12]; [24]", "value": 80},
      {"measurement": "Corn plant response rating (0 to 100 scale)", "setting": "[13]; [23]", "value": 70},
      {"measurement": "Corn plant response rating (0 to 100 scale)", "setting": "[13]; [24]", "value": 90},
      {"measurement": "Galium plant response rating (0 to 100 scale)", "setting": "[14]; [23]", "value": 40},
      {"measurement": "Galium plant response rating (0 to 100 scale)", "setting": "[14]; [24]", "value": 80},
      {"measurement": "Horseweed plant response rating (0 to 100 scale)", "setting": "[15]; [23]", "value": 40},
      {"measurement": "Horseweed plant response rating (0 to 100 scale)", "setting": "[15]; [24]", "value": 70},
      {"measurement": "Kochia plant response rating (0 to 100 scale)", "setting": "[16]; [23]", "value": 80},
      {"measurement": "Kochia plant response rating (0 to 100 scale)", "setting": "[16]; [24]", "value": 80},
      {"measurement": "Oat, Wild plant response rating (0 to 100 scale)", "setting": "[17]; [23]", "value": 10},
      {"measurement": "Oat, Wild plant response rating (0 to 100 scale)", "setting": "[17]; [24]", "value": 90},
      {"measurement": "Amaranth, Palmer / Pigweed, Palmer plant response rating (0 to 100 scale)", "setting": "[18]; [23]", "value": 70},
      {"measurement": "Amaranth, Palmer / Pigweed, Palmer plant response rating (0 to 100 scale)", "setting": "[18]; [24]", "value": 90},
      {"measurement": "Ragweed plant response rating (0 to 100 scale)", "setting": "[19]; [23]", "value": 0},
      {"measurement": "Ragweed plant response rating (0 to 100 scale)", "setting": "[19]; [24]", "value": 60},
      {"measurement": "Ryegrass, Italian plant response rating (0 to 100 scale)", "setting": "[20]; [23]", "value": 50},
      {"measurement": "Ryegrass, Italian plant response rating (0 to 100 scale)", "setting": "[20]; [24]", "value": 70},
      {"measurement": "Soybean plant response rating (0 to 100 scale)", "setting": "[21]; [23]", "value": 20},
      {"measurement": "Soybean plant response rating (0 to 100 scale)", "setting": "[21]; [24]", "value": 50},
      {"measurement": "Wheat plant response rating (0 to 100 scale)", "setting": "[22]; [23]", "value": 70},
      {"measurement": "Wheat plant response rating (0 to 100 scale)", "setting": "[22]; [24]", "value": 80}
    ]}
  ]
}
